Patent US11203600B2 (Denali Therapeutics Inc., priority 2017, dated 2021)

Molecular target: GST-hRIPK1 (8-327) (Homo sapiens (Human), UniProt Q13546)
Test: Fluorescent Polarization Binding (FP Binding) assay, RIPK1
Settings: mean of at least two independent experiments
In short: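 Compound displacement of 5 nM labelled ligand from 10 nM GST-hRIPK1 (8-327) was read as FP (531/595 nm) after 30 min at RT. Buffer: HEPES pH 7.5, NaCl, MgCl2, CHAPS, DTT, Pluronic; 1% DMSO final. IC50s were averaged over at least two independent runs.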

[1] = 10 nM GST-hRIPK1 (8-327), 5 nM fluorescent-labeled ligand, RT, 30 min

GST-hRIPK1 (8-327), sequence (Q13546 8-327): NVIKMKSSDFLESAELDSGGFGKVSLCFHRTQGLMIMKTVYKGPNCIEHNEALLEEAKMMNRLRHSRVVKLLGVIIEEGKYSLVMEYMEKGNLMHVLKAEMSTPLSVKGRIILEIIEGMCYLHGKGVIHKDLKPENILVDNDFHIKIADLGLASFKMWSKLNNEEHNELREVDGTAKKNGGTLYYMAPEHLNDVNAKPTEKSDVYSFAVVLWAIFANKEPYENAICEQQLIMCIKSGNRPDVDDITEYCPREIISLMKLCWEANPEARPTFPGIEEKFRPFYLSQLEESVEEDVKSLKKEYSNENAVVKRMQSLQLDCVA

SMILES	IC50 [1] [µM]	IC50 (GST-hRIPK1 (8-327)) [µM]
COc1nc(N2CCC(F)(C(=O)N3CCOc4c(C#N)cncc4C3)CC2)nc2ccccc12 [Example 197, 4-[4-fluoro-1-(4-methoxyquinazolin-2-yl)piperidine-4-carbonyl]-3,5-dihydro-2H-pyrido[3,4-f][1,4]oxazepine-9-carbonitrile]	0.1 to 1	–
N#Cc1cncc2c1OCCN(C(=O)C1(F)CCN(c3cnc4ccccc4n3)CC1)C2 [Example 198, 4-(4-fluoro-1-quinoxalin-2-yl-piperidine-4-carbonyl)-3,5-dihydro-2H-pyrido[3,4-f][1,4]oxazepine-9-carbonitrile]	0.1 to 1	–
N#Cc1cncc2c1OCCN(C(=O)C1(F)CCN(c3cc4ccccc4cn3)CC1)C2 [Example 199, 4-[4-fluoro-1-(3-isoquinolyl)piperidine-4-carbonyl]-3,5-dihydro-2H-pyrido[3,4-f][1,4]oxazepine-9-carbonitrile]	0.0001 to 0.1	–
N#Cc1cncc2c1OCCN(C(=O)C1(F)CCN(c3ccc4ccccc4n3)CC1)C2 [Example 200, 4-[4-fluoro-1-(2-quinolyl)piperidine-4-carbonyl]-3,5-dihydro-2H-pyrido[3,4-f][1,4]oxazepine-9-carbonitrile]	–	0.0001 to 0.1
N#Cc1cncc2c1OCCN(C(=O)C1(F)CCN(c3ncc(F)c(C4CC4)n3)CC1)C2 [Example 201, 4-[1-(4-cyclopropyl-5-fluoro-pyrimidin-2-yl)-4-fluoro-piperidine-4-carbonyl]-3,5-dihydro-2H-pyrido[3,4-f][1,4]oxazepine-9-carbonitrile]	–	0.0001 to 0.1
N#Cc1cncc2c1OCCN(C(=O)C1(F)CCN(c3nc(Cl)ncc3F)CC1)C2 [Example 202, 4-[1-(2-chloro-5-fluoro-pyrimidin-4-yl)-4-fluoro-piperidine-4-carbonyl]-3,5-dihydro-2H-pyrido[3,4-f][1,4]oxazepine-9-carbonitrile]	–	0.0001 to 0.1
O=C(C1CCN(c2ncc(F)cn2)CC1)N1CCCc2ccccc2C1 [Example 203, [1-(5-fluoropyrimidin-2-yl)-4-piperidyl]-(1,3,4,5-tetrahydro-2-benzazepin-2-yl)methanone]	–	0.1 to 1
N#Cc1cncc2c1OCCN(C(=O)C1CCN(c3ccnc4ccnn34)CC1)C2 [Example 205, 4-(1-pyrazolo[1,5-a]pyrimidin-7-ylpiperidine-4-carbonyl)-3,5-dihydro-2H-pyrido[3,4-f][1,4]oxazepine-9-carbonitrile]	–	0.1 to 1
N#Cc1cncc2c1OCCN(C(=O)C1(F)CCN(c3nccn4ncnc34)CC1)C2 [Example 206, 4-[4-fluoro-1-([1,2,4]triazolo[1,5-a]pyrazin-8-yl)piperidine-4-carbonyl]-3,5-dihydro-2H-pyrido[3,4-f][1,4]oxazepine-9-carbonitrile]	–	0.0001 to 0.1
CCC(C)(C)C(=O)N1CCOc2c(F)cncc2C1 [Example 207, 1-(9-fluoro-3,5-dihydro-2H-pyrido[3,4-f][1,4]oxazepin-4-yl)-2,2-dimethyl-butan-1-one]	–	0.1 to 1
N#Cc1cncc2c1OCCN(C(=O)C1(O)CCN(c3ncc(F)cn3)CC1F)C2 (stereo not shown) [Example 208, 4-[3-fluoro-1-(5-fluoropyrimidin-2-yl)-4-hydroxy-piperidine-4-carbonyl]-3,5-dihydro-2H-pyrido[3,4-f][1,4]oxazepine-9-carbonitrile]	–	0.1 to 1
COC1(C(=O)N2CCOc3c(F)cncc3C2)CCN(c2ncnc(OCC(F)F)n2)CC1 [Example 209, [1-[4-(2,2-difluoroethoxy)-1,3,5-triazin-2-yl]-4-methoxy-4-piperidyl]-(9-fluoro-3,5-dihydro-2H-pyrido[3,4-f][1,4]oxazepin-4-yl)methanone]	–	0.1 to 1
O=C(C1CCN(c2ncnc(OCC(F)F)n2)CC1)N1CCOc2c(F)cncc2C1 [Example 210, [1-[4-(2,2-difluoroethoxy)-1,3,5-triazin-2-yl]-4-piperidyl]-(9-fluoro-3,5-dihydro-2H-pyrido[3,4-f][1,4]oxazepin-4-yl)methanone]	–	0.1 to 1
N#Cc1cncc2c1OCCN(C(=O)C1CCN(c3ncc(F)cn3)CC1O)C2 (stereo not shown) [Example 211, 4-[1-(5-fluoropyrimidin-2-yl)-3-hydroxy-piperidine-4-carbonyl]-3,5-dihydro-2H-pyrido[3,4-f][1,4]oxazepine-9-carbonitrile]	–	0.1 to 1
N#Cc1cncc2c1OCCN(C(=O)C1(F)CCN(c3ccnc4ncnn34)CC1)C2 [Example 212, 4-[4-fluoro-1-([1,2,4]triazolo[1,5-a]pyrimidin-7-yl)piperidine-4-carbonyl]-3,5-dihydro-2H-pyrido[3,4-f][1,4]oxazepine-9-carbonitrile]	–	0.1 to 1
CC1(C(=O)N2CCOc3c(C#N)cncc3C2)CCN(c2ncc(Cl)cn2)CC1(F)F (stereo not shown) [Example 215, 4-(1-(5-chloropyrimidin-2-yl)-3,3-difluoro-4-methylpiperidine-4-carbonyl)-2,3,4,5-tetrahydropyrido[3,4-f][1,4]oxazepine-9-carbonitrile]	–	0.0001 to 0.1

SMILES	IC50 [1] [µM]	IC50 (GST-hRIPK1 (8-327)) [µM]
CC1(C(=O)N2CCOc3c(C#N)cncc3C2)CCN(c2ncc(F)c(=O)[nH]2)CC1(F)F (stereo not shown) [Example 216, 4-[3,3-difluoro-1-(5-fluoro-6-oxo-1H-pyrimidin-2-yl)-4-methyl-piperidine-4-carbonyl]-3,5-dihydro-2H-pyrido[3,4-f][1,4]oxazepine-9-carbonitrile]	–	0.1 to 1
COCCOc1nc(N2CCC(C)(C(=O)N3CCOc4c(C#N)cncc4C3)C(F)(F)C2)ncc1F (stereo not shown) [Example 217, 4-[3,3-difluoro-1-[5-fluoro-4-(2-methoxyethoxy)pyrimidin-2-yl]-4-methyl-piperidine-4-carbonyl]-3,5-dihydro-2H-pyrido[3,4-f][1,4]oxazepine-9-carbonitrile]	–	0.0001 to 0.1
N#Cc1cncc2c1OCCN(C(=O)C1CCN(c3ncnn4ccnc34)CC1(F)F)C2 (stereo not shown) [Example 218, 4-(3,3-difluoro-1-imidazo[2,1-f][1,2,41triazin-4-yl-piperidine-4-carbonyl)-3,5-dihydro-2H-pyrido[3,4-f][1,4]oxazepine-9-carbonitrile)]	–	0.1 to 1
N#Cc1cncc2c1OCCN(C(=O)C1CCN(c3nccn4ncnc34)CC1(F)F)C2 (stereo not shown) [Example 219, 4-[3,3-difluoro-1-([1,2,4]triazolo[1,5-a]pyrazin-8-yl)piperidine-4-carbonyl]-3,5-dihydro-2H-pyrido[3,4-f][1,4]oxazepine-9-carbonitrile]	–	0.1 to 1
N#Cc1cncc2c1OCCN(C(=O)C1CCN(c3ncnc4ccnn34)CC1(F)F)C2 (stereo not shown) [Example 220]	–	0.1 to 1
N#Cc1cncc2c1OCCN(C(=O)C1CCN(c3ccnc4ccnn34)CC1(F)F)C2 (stereo not shown) [Example 221, 4-(3,3-difluoro-1-pyrazolo[1,5-a]pyrimidin-7-yl-piperidine-4-carbonyl)-3,5-dihydro-2H-pyrido[3,4-f][1,4]oxazepine-9-carbonitrile]	–	0.1 to 1
CC1(C(=O)N2CCOc3c(C#N)cncc3C2)CCN(c2nccn3ncnc23)CC1(F)F (stereo not shown) [Example 222, 4-[3,3-difluoro-4-methyl-1-([1,2,4]triazolo[1,5-a]pyrazin-8-yl)piperidine-4-carbonyl]-3,5-dihydro-2H-pyrido[3,4-f][1,4]oxazepine-9-carbonitrile]	–	0.0001 to 0.1
Cn1nccc(N2CCC(C(=O)N3CCOc4c(C#N)cncc4C3)[C@@H](F)C2)c1=O (stereo partly drawn) [Example 224, 4-[(3,4)-trans-3-fluoro-1-(2-methyl-3-oxo-pyridazin-4-yl)piperidine-4-carbonyl]-3,5-dihydro-2H-pyrido[3,4-f][1,4]oxazepine-9-carbonitrile]	–	> 1
N#Cc1cncc2c1OCCN(C(=O)C1CCN(c3nccn4ncnc34)C[C@@H]1F)C2 (stereo partly drawn) [Example 225, 4-[(3,4)-trans-3-fluoro-1-([1,2,4]triazolo[1,5-a]pyrazin-8-yl)piperidine-4-carbonyl]-3,5-dihydro-2H-pyrido[3,4-f][1,4]oxazepine-9-carbonitrile]	–	0.0001 to 0.1
N#Cc1cncc2c1OCCN(C(=O)C1CCN(c3ccnc4c(F)cnn34)C[C@@H]1F)C2 (stereo partly drawn) [Example 226, 4-[(3,4)-trans-3-fluoro-1-(3-fluoropyrazolo[1,5-a]pyrimidin-7-yl)piperidine-4-carbonyl]-3,5-dihydro-2H-pyrido[3,4-f][1,4]oxazepine-9-carbonitrile]	–	0.0001 to 0.1
N#Cc1cncc2c1OCCN(C(=O)C1CCN(c3ccnc4c(Cl)cnn34)C[C@@H]1F)C2 (stereo partly drawn) [Example 227, 4-[1-(3-chloropyrazolo[1,5-a]pyrimidin-7-yl)-(3,4)-trans-3-fluoro-piperidine-4-carbonyl]-3,5-dihydro-2H-pyrido[3,4-f][1,4]oxazepine-9-carbonitrile]	–	0.0001 to 0.1
N#Cc1cncc2c1OCCN(C(=O)C1CCN(c3ccnc4c(F)cnn34)CC1)C2 [Example 228, 4-[1-(3-fluoropyrazolo[1,5-a]pyrimidin-7-yl)piperidine-4-carbonyl]-3,5-dihydro-2H-pyrido[3,4-f][1,4]oxazepine-9-carbonitrile]	–	0.0001 to 0.1
N#Cc1cncc2c1OCCN(C(=O)C1CCN(c3ccnc4c(Cl)cnn34)CC1)C2 [Example 229, 4-[1-(3-chloropyrazolo[1,5-a]pyrimidin-7-yl)piperidine-4-carbonyl]-3,5-dihydro-2H-pyrido[3,4-f][1,4]oxazepine-9-carbonitrile]	–	0.0001 to 0.1
N#Cc1cncc2c1OCC1(CC1)N(C(=O)C1CCN(c3ncc(F)cn3)CC1)C2 [Example 230, 4-[1-(5-fluoropyrimidin-2-yl)piperidine-4-carbonyl]spiro[2,5-dihydropyrido[3,4-f][1,4]oxazepine-3,1′-cyclopropane]-9-carbonitrile]	–	0.1 to 1
N#Cc1cncc2c1OCCN(C(=O)C1CCN(c3ncc(F)cn3)CCO1)C2 (stereo not shown) [Example 231, 4-[4-(5-fluoropyrimidin-2-yl)-1,4-oxazepane-7-carbonyl]-3,5-dihydro-2H-pyrido[3,4-f][1,4]oxazepine-9-carbonitrile]	–	> 1
